Experimental data taken from patent US20210198277A1, “AMINE-SUBSTITUTED ARYL OR HETEROARYL COMPOUNDS” (Epizyme, Inc., priority 2016, published 2021).

Target: T1, EHMT1 (Homo sapiens, UniProt Q9H9B1)
T1 sequence (Q9H9B1 1-1298): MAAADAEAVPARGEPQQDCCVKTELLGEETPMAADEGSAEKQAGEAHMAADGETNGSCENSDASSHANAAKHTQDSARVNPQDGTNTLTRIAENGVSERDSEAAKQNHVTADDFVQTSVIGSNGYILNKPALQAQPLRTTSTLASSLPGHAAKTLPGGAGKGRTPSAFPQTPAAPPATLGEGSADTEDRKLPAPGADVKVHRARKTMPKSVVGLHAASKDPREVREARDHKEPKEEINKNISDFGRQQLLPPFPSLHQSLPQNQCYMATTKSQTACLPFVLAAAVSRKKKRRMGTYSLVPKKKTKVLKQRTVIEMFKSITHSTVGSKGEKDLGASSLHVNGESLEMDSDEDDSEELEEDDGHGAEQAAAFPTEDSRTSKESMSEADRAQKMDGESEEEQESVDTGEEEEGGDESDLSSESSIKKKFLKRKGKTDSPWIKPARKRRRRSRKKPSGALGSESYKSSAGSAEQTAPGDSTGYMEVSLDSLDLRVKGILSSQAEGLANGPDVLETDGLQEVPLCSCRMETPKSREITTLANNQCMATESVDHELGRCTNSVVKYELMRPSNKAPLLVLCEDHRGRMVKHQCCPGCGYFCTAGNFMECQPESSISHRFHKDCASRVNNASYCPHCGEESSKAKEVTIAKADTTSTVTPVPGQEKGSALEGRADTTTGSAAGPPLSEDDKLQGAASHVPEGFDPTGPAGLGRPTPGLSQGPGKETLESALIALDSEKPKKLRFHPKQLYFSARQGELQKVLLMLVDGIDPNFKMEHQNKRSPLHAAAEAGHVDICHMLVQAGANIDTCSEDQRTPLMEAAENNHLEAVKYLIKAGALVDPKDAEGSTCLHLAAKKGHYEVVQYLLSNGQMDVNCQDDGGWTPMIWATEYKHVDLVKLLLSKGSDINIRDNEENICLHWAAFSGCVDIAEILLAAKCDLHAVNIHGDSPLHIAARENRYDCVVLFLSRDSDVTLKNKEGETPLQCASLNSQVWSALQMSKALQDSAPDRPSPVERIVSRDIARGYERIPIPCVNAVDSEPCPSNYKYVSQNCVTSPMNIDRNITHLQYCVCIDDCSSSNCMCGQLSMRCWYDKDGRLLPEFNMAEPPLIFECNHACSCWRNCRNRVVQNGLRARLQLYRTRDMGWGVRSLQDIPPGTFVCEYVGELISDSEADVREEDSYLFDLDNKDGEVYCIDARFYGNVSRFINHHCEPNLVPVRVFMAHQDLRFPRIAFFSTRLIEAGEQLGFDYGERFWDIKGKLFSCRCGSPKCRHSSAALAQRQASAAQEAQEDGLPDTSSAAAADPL
Test: EHMT1 enzyme assay on peptide substrate (EHMT1 PEP)
Format: biochemical
Settings: Table VI; read-out: EHMT1 PEP IC50

IC50 | SMILES
0.1 to 1 µM | COc1cc2c(C3CCN(C(C)C)CC3)nc(C)nc2cc1OCCCN1CCCC1 [Compound 659]
1 to 10 µM | CNc1cc(C)nc(Nc2ccc(OC)c(CN(C)CCN3CCCC3)c2)n1 [Compound 645]
< 0.1 µM | CCN1CC[C@@H](COc2cc3nc(C)cc(C4CCN(C(C)C)CC4)c3cc2OC)C1 [Compound 663]
< 0.1 µM | CCN1CC[C@@H](COc2cc(Nc3nc(NC)cc(C(C)C)n3)ccc2OC)C1 [Compound 672]

The next lines start with the compound.

SMILES | IC50
CNc1cc(C)nc(Nc2cnc(OC)c(OC[C@@H]3CCNC3)c2)n1 [Compound 641] | < 0.1 µM
CNc1cc(C)nc(Nc2cc(OCCCN3CCCC3)n3cnnc3c2)n1 [Compound 628] | > 10 µM
COc1cc(NC2CCNCC2)ncc1OCC1CCNC1 (centres unmarked) [Compound 629] | < 0.1 µM
COc1cnc(NC(=O)/C=C/CN(C)C)cc1OCCCN1CCCC1 [Compound 640] | > 10 µM
